We go through five compounds from ChEMBL document CHEMBL1129258, “Synthesis and structure-activity relationships of 2-pyridones: a novel series of potent DNA gyrase inhibitors as antibacterial agents” (J Med Chem, 1996).

One series concerns Streptococcus pyogenes. As to the kind of experiment: In vitro antibacterial activity against gram-positive organism Streptococcus pyogenes EES61. The class given is functional. Conditions: Streptococcus pyogenes; read-out: MIC.
The target in series [1] is T1, DNA gyrase (Staphylococcus aureus) (UniProt P0A0K8+P20831). As to the kind of experiment: In vitro antibacterial activity against gram-positive organism Staphylococcus aureus NCTC-10649M. The format is functional.
The target of series [2] is T2, DNA gyrase (Escherichia coli) (UniProt P0AES6+P0AES4). As to the kind of experiment: In vitro antibacterial activity against gram-negative organism Klebsiella pneumoniae ATCC 8045. The class given is functional.
Series [3] concerns the target T2, DNA gyrase (Escherichia coli). As to the kind of experiment: In vitro antibacterial against gram-negative organism Escherichia coli JUHL. The format is functional. Conditions: Escherichia coli K-12.
The target is the same in series [4]. As to the kind of experiment: In vitro antibacterial activity against gram-positive organism Enterococcus faecium ATCC 8043. The class given is functional.
Series [5] in a line: In vitro antibacterial activity against gram-negative organism Pseudomonas aeruginosa DPHD-2862. The format is functional.
Series [6] concerns the target T2, DNA gyrase (Escherichia coli). Conditions: Escherichia coli K-12.
Description: Concentration which causes 50% of the gyrase (Escherichia coli H560)-mediated maximal DNA cleavage.
The target is the same in series [7]. As to the kind of experiment: In vitro antibacterial activity against gram-negative organism […] ATCC 13048. The class given is functional. Conditions: Enterobacter aerogenes.
The test system of series [8] is Pseudomonas aeruginosa. As to the kind of experiment: In vivo efficacy against Pseudomonas aeruginosa 5007 following p.o. administration.
The nature of series [9]: In vitro antibacterial activity against gram-negative organism Pseudomonas aeruginosa 5007. The format is functional.
The target in series [10] is T2, DNA gyrase (Escherichia coli). As to the kind of experiment: In vitro antibacterial activity against gram-negative organism Prov. stuartii CMX-640. The format is functional. Conditions: Providencia stuartii.
For series [11] the target is unchanged. As to the kind of experiment: In vitro antibacterial activity against gram-positive organism Streptococcus bovis A-5169. The format is functional. Conditions: Streptococcus equinus.
A short description of series [12]: In vivo efficacy against Pseudomonas aeruginosa 5007 after subcutaneous administration. The class given is functional.
The test system of series [13] is Staphylococcus aureus. As to the kind of experiment: (§1) In vivo efficacy against Staphylococcus aureus NCTC-10649M after oral administration. The class given is functional.
The target in series [14] is T1, DNA gyrase (Staphylococcus aureus). As to the kind of experiment: In vitro antibacterial activity against gram-positive organism Staphylococcus aureus 1775. The format is functional.
Series [15] has the same target. As to the kind of experiment: In vivo efficacy against Staphylococcus aureus NCTC-10649M after subcutaneous administration. The format is functional, organism-based.
In series [16] the target is T2, DNA gyrase (Escherichia coli). As to the kind of experiment: In vivo efficacy against Escherichia coli JUHL after oral administration. The class given is functional, organism-based. Conditions: Escherichia coli K-12.
For series [17], the target named is T1, DNA gyrase (Staphylococcus aureus). As to the kind of experiment: In vitro antibacterial activity against gram-positive organism Staphylococcus aureus ATCC 6538p. The format is functional.
The target in series [18] is T2, DNA gyrase (Escherichia coli). As to the kind of experiment: In vivo efficacy against Escherichia coli JUHL by subcutaneous administration. The class given is functional, organism-based. Conditions: Escherichia coli K-12.
Series [19] deals with Escherichia coli. As to the kind of experiment: In vivo efficacy against Escherichia coli JUHL by subcutaneously administered. The format is functional. Conditions: sc.
In series [20] the test system is Staphylococcus aureus. As to the kind of experiment: In vivo efficacy against Staphylococcus aureus NCTC-10649M by orally administered. The class given is functional.
Series [21] deals with Escherichia coli. As to the kind of experiment: In vivo efficacy against Escherichia coli JUHL by orally administered. Conditions: po. The format is functional.
Series [22] has as its system Pseudomonas aeruginosa. As to the kind of experiment: In vivo efficacy against Pseudomonas aeruginosa 5007 by subcutaneously administered. The class given is functional. Conditions: sc.
Series [23] deals with Staphylococcus aureus. As to the kind of experiment: In vivo efficacy against Staphylococcus aureus NCTC-10649M by subcutaneously administered. The class given is functional.
Series [24] has as its system Streptococcus pneumoniae. As to the kind of experiment: In vivo efficacy against Stap. administered. The class given is functional.
The nature of the next series: physchem. Conditions: phosphate buffer, pH 7.4.
The test system of series [25] is Streptococcus pneumoniae. As to the kind of experiment: In vivo efficacy against Strep. administration. The format is functional.
A short description of series [26]: Maximum plasma concentration in rats after an oral dose of 5 mg/kg. Conditions: rat.
Series [27] is described as follows: in vivo. Conditions: rat, po, 5 mg/kg.
Description: Oral bioavailability in rat (dose 5 mg/kg)
Series [28] relates to Streptococcus pneumoniae. As to the kind of experiment: In vivo efficacy against Strep. administered. The class given is functional.
Series [29] deals with T1, DNA gyrase (Staphylococcus aureus). The description is as §1. The class given is functional, organism-based.
Series [30] is described as follows: in vivo. Conditions: rat, plasma, po, 5 mg/kg.
Series [31] deals with Pseudomonas aeruginosa. As to the kind of experiment: In vivo efficacy against Pseudomonas aeruginosa 5007 by orally administered. The class given is functional.
The subject of the next series is Enterococcus faecalis. As to the kind of experiment: Inhibitory activity against enterococcus faecalis Van B. The format is functional.
The next series relates to Enterococcus faecium. As to the kind of experiment: Inhibitory activity against enterococcus faecium Van A. The class given is functional.
Setting [32] is: Pseudomonas aeruginosa, read-out: MIC.
The mark [33] stands for this setting: Pseudomonas aeruginosa, sc, read-out: ED50.
Setting [34] is: Streptococcus pneumoniae, read-out: ED50.

In brackets after ≈: the same amount, converted by molar mass.

T1 sequence (P0A0K8 2-644 limits assumed): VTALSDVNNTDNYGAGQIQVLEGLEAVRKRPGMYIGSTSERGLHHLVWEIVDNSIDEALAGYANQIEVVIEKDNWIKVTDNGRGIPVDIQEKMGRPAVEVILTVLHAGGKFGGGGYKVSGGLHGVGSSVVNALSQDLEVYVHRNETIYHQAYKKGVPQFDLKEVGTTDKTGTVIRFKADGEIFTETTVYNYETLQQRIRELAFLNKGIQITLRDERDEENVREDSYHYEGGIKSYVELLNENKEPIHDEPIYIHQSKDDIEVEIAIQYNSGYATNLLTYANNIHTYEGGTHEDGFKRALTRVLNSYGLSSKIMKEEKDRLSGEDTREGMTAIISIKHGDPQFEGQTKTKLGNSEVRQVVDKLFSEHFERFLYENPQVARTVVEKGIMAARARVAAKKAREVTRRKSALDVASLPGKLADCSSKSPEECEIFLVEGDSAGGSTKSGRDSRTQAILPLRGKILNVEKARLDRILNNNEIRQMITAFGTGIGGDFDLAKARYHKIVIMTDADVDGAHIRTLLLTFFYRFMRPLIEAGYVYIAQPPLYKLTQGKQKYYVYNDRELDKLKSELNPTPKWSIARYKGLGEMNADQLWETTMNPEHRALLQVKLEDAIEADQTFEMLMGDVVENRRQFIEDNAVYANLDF
T1 sequence (P20831 whole entry partner): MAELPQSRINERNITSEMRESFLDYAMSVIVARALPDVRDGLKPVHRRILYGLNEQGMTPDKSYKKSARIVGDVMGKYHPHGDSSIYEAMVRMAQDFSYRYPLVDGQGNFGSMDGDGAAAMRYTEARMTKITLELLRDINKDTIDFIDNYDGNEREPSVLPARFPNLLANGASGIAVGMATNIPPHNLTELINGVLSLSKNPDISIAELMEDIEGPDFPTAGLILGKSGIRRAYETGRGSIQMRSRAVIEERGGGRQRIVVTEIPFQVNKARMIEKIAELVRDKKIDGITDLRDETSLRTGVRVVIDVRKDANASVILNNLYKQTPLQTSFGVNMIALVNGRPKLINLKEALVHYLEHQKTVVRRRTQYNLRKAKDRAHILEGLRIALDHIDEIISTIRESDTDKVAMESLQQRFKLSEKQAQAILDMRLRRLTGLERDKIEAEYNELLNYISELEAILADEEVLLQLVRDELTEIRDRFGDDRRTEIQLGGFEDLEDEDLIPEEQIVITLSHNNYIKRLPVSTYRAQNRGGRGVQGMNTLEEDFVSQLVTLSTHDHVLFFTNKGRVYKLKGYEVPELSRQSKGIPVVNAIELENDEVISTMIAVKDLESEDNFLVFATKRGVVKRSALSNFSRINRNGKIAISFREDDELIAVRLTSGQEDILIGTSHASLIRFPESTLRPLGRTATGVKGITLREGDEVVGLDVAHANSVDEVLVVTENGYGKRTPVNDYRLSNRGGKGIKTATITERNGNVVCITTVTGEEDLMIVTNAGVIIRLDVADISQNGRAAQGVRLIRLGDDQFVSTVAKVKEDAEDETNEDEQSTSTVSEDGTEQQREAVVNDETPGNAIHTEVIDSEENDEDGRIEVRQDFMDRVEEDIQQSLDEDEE
Description for physchem: Aqueous solubility in pH 7.4 phosphate buffer (0.05 M) at 37 degree C

Take `Cc1c(N2CC[C@@H]([C@@H](C)N)C2)c(F)cn2c(=O)c(C(=O)O)cc(C3CC3)c12`: the MIC with Streptococcus pyogenes came to 0.005 µg/mL (≈ 0.0134 µM); in series [1] it was 0.002 µg/mL (≈ 0.00536 µM); in series [2], 0.001 µg/mL (≈ 0.00268 µM); in series [3], 1 ng/mL (≈ 0.00268 µM); in [4] it was 0.01 µg/mL (≈ 0.0268 µM); in [5] (setting [32]), 6.2 µg/mL (≈ 16.6 µM). Besides, the MIC is 0.01 µg/mL (≈ 0.0268 µM) in series [7]; 0.2 µg/mL (≈ 0.536 µM) in series [9] (setting [32]); 0.78 pug ml-1 in series [10]; 0.01 µg/mL (≈ 0.0268 µM) in series [11]; 0.39 µg/mL (≈ 1.04 µM) in [14]; 0.002 µg/mL (≈ 0.00536 µM) in [17]. This compound displayed a CC50 in [6] of 0.4 µg/mL (≈ 1.07 µM). Besides, the 50% effective dose (ED50) (commonly the midpoint of the dose-response relation) with Pseudomonas aeruginosa [8] was 24.4 mg/kg; in series [12] (setting [33]) it was 5.4 mg/kg; in the series with Staphylococcus aureus [13], 1.1 mg/kg; in [15] it was less than 0.2 mg/kg; in [16], 5.7 mg/kg; in series [18] it was 0.5 mg/kg.
For the compound `Cc1c(N2CCC(N)C2)c(F)cn2c(=O)c(/C(O)=C/[N+](=O)[O-])cc(C3CC3)c12` (stereo not given), the MIC with Streptococcus pyogenes was 0.2 µg/mL (≈ 0.515 µM); in series [1] it was 0.1 µg/mL (≈ 0.257 µM); in series [2], 0.02 µg/mL (≈ 0.0515 µM); in series [3], 20 ng/mL (≈ 0.0515 µM); in [4] it was 0.39 µg/mL (≈ 1 µM); in series [5] (setting [32]), 6.2 µg/mL (≈ 16 µM). In addition, the MIC in series [7] came out at 0.1 µg/mL (≈ 0.257 µM); in series [9] (setting [32]) it was 0.39 µg/mL (≈ 1 µM); in series [10] it was 1.56 µg/mL (≈ 4.02 µM); in [11], 0.2 µg/mL (≈ 0.515 µM); in [14] it was 6.2 µg/mL (≈ 16 µM); in series [17], 0.05 µg/mL (≈ 0.129 µM). The ED50 in the series on Escherichia coli [19] is more than 5 mg/kg; with Staphylococcus aureus [20], 25.2 mg/kg; in the series on Escherichia coli [21], more than 10 mg/kg; in the series on Pseudomonas aeruginosa [22], 3.2 mg/kg; in the series on Staphylococcus aureus [23], more than 12 mg/kg; in the series with Streptococcus pneumoniae [24] it was more than 8 mg/kg. The compound also gave a CC50 in series [6] of 3 µg/mL (≈ 7.72 µM).
In the case of `Cc1c(N2CC[C@@H]3CNC[C@@H]32)c(F)cn2c(=O)c(C(=O)O)cc(C3CC3)c12`, the MIC with Streptococcus pyogenes turned out to be 0.1 µg/mL (≈ 0.269 µM); in series [1], 0.05 µg/mL (≈ 0.135 µM); in series [2], 0.02 µg/mL (≈ 0.0538 µM); in [3] it was 1 ng/mL (≈ 0.00269 µM); in series [4], 0.1 µg/mL (≈ 0.269 µM); in series [5] (setting [32]), 3.1 µg/mL (≈ 8.35 µM). Also, the MIC in series [7] is 0.05 µg/mL (≈ 0.135 µM); in series [9] (setting [32]) it was 0.39 µg/mL (≈ 1.05 µM); in series [10], 1.56 µg/mL (≈ 4.2 µM); in series [11] it was 0.1 µg/mL (≈ 0.269 µM); in series [14] it was 6.2 µg/mL (≈ 16.7 µM); in series [17], 0.05 µg/mL (≈ 0.135 µM). The solubility – broadly, the dissolved amount per volume that the medium holds – in “physchem” came out at 1940 µg/mL (≈ 5220 µM). For the same compound, the median effective dose (ED50) in the series with Streptococcus pneumoniae [25] (setting [34]) was 9.5 mg/kg; with Pseudomonas aeruginosa [8], 42.8 mg/kg; in the series with Streptococcus pneumoniae [28] (setting [34]), 6.4 mg/kg; in series [29], 3.6 mg/kg; in series [12] (setting [33]), more than 8 mg/kg; in series [15], 1.8 mg/kg. The values for the 50% effective dose (ED50) in series [16] and in series [18] were 3.6 mg/kg and 1.1 mg/kg, respectively. The compound also came in with a CC50 in series [6] of 0.4 µg/mL (≈ 1.08 µM). Further, the concentration in series [26] peaked (Cmax) at 330 ng/mL. Also, the bioavailability (usually the share of a dose that reaches the circulation, judged against a reference dose that is usually intravenous) in “in vivo [27]” was found to be 41%. In addition, in the series “in vivo [30]”, the half-life (commonly how long it takes for the measured level to halve) is 342 min.
As to `Cc1c(N2C[C@@H]3CCN[C@@H]3C2)c(F)cn2c(=O)c(C(=O)O)cc(C3CC3)c12` (stereo in doubt; (S,S)45o), the ED50 in the series on Streptococcus pneumoniae [25] was 11.2 mg/kg; with Pseudomonas aeruginosa [31] it was more than 50 mg/kg; in the series with Streptococcus pneumoniae [28] it was 2.3 mg/kg; in series [12] it was 18 mg/kg. Further, the figures for the MIC in series [5] and in series [9] were 3.1 µg/mL (≈ 8.35 µM) and 0.2 µg/mL (≈ 0.538 µM), respectively.
Consider `CNC1CCN(c2c(F)cn3c(=O)c(C(=O)O)cc(C4CC4)c3c2C)C1` (stereo not given), for which the MIC in the series with Streptococcus pyogenes was found to be 0.05 µg/mL (≈ 0.139 µM); in series [1] it was 0.02 µg/mL (≈ 0.0556 µM); in [2], 0.005 µg/mL (≈ 0.0139 µM); in series [3], 5 ng/mL (≈ 0.0139 µM); in the series with Enterococcus faecalis it was 0.06 µg/mL (≈ 0.167 µM); in [4], 0.1 µg/mL (≈ 0.278 µM). Moreover, the MIC is 1.56 µg/mL (≈ 4.34 µM) in series [5] (setting [32]); 0.02 µg/mL (≈ 0.0556 µM) in [7]; 0.2 µg/mL (≈ 0.556 µM) in series [9] (setting [32]); 0.5 µg/mL (≈ 1.39 µM) against Enterococcus faecium; 0.39 µg/mL (≈ 1.09 µM) in [10]; 0.1 µg/mL (≈ 0.278 µM) in series [11]. The MIC in [14] was determined as 1.56 µg/mL (≈ 4.34 µM); in series [17], 0.02 µg/mL (≈ 0.0556 µM). This compound also registered a CC50 in [6] of 0.08 µg/mL (≈ 0.223 µM). Also, the median effective dose (ED50) in the series on Escherichia coli [21] is 1.1 mg/kg; in the series on Pseudomonas aeruginosa [8], 7.2 mg/kg; in series [29], less than 3.1 mg/kg; in [12] (setting [33]) it was 2.8 mg/kg; in series [15] it was 0.9 mg/kg; in series [18], 0.7 mg/kg.
